{
  "source": "paper PMC2721767",
  "about": "(Purinergic Signalling, 2008)",
  "system": "human washed platelets",
  "test": "ADP-induced aggregation of human washed platelets",
  "format": "cell-based",
  "settings": "SCH442416 10 μM preapplication, data not shown",
  "data": [
    {"smiles": "COc1ccc(CCCn2ncc3c2nc(N)n2nc(-c4ccco4)nc32)cc1", "note": "[SCH442416, 5-Amino-7-(3-(4-methoxy)phenylpropyl)-2-(2-furyl)pyrazolo[4,3-e]-1,2,4-triazolo[1,5-c]pyrimidine]", "values": [
      {"measurement": "effect of antagonist on inhibition of platelet aggregation by 1 µM 10", "setting": "5 μM ADP", "result": "completely reversed the inhibitory effect"},
      {"measurement": "effect of antagonist alone on aggregation induced by 5 μM ADP", "result": "had no effect on aggregation"}
    ]}
  ]
}
